Measured values from paper PMC10877733, “Discovery and Characterization of VU0542270, the First Selective Inhibitor of Vascular Kir6.1/SUR2B KATP Channels” (Molecular Pharmacology, 2024).
Values joined by “and” are separate entries in the source; they are usually repeats but may differ in a detail not shown here. Equal entries are not always repeated.

Tests used:
Kir6.1/SUR2B = biological target: T1, Kir6.1/SUR2B (Homo sapiens, UniProt O60706); experiment: Whole-cell patch clamp electrophysiology, T-Rex-HEK293-Kir6.1/SUR2B cells; format: cell-based
T1 construct: expressed in transfected cells; also transiently transfected HEK293T
T1 sequence (O60706 1-1549 isoform O60706-2, species assumed): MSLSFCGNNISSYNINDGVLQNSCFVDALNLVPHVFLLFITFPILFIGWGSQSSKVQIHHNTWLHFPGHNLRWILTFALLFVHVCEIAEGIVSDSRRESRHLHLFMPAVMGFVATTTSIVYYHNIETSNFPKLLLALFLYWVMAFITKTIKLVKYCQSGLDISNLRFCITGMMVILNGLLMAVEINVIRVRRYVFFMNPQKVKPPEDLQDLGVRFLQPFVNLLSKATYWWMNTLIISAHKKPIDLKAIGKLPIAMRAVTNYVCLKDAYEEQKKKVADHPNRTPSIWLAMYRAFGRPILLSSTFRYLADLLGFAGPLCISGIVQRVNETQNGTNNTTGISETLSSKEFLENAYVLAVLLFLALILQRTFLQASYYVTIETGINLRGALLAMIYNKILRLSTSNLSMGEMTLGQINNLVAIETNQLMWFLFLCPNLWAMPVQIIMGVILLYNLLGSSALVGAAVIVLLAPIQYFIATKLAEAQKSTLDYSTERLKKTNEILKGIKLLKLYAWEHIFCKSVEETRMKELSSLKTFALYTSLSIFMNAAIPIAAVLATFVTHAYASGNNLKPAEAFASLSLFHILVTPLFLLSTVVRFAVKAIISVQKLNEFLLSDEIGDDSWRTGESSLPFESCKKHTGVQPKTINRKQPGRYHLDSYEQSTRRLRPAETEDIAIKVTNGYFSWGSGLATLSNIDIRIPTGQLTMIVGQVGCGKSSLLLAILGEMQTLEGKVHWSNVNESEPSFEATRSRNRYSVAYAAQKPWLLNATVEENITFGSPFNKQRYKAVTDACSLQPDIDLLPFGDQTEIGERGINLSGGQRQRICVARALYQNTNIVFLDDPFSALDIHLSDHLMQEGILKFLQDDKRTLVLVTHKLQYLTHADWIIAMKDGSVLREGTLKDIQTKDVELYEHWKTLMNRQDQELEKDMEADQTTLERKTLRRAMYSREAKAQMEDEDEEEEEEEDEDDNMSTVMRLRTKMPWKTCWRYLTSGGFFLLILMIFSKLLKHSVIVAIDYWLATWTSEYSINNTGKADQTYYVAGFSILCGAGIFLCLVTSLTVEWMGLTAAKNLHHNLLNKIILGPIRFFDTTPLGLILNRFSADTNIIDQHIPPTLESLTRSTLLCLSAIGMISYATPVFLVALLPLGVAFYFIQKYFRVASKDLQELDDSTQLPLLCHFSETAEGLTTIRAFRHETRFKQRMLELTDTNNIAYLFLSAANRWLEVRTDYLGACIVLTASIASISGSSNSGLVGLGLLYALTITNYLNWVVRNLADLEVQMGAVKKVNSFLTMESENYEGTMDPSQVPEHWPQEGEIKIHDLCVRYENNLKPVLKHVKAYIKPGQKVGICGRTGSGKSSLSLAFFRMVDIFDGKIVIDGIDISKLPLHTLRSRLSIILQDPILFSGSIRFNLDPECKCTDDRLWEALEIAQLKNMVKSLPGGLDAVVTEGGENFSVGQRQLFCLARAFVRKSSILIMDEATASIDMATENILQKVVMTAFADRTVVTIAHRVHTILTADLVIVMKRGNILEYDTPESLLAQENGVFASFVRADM
T1 sequence (Q15842 whole entry partner, species assumed): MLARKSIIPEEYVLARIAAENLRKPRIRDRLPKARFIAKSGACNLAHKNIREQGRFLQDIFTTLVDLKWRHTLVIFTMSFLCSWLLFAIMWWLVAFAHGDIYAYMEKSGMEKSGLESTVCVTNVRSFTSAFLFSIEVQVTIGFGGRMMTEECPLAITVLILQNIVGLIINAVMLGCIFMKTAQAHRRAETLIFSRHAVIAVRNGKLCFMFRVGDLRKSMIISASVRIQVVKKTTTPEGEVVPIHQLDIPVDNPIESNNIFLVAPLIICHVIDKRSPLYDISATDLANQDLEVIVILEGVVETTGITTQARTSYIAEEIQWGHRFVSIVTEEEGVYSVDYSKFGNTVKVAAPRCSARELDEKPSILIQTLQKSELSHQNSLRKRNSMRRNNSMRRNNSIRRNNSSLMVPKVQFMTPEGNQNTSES
Procedure: T-Rex-HEK293-Kir6.1/SUR2B cells were plated into tissue culture-treated 35-mm polystyrene dishes at a density of 250,000 cells and cultured in a 5% CO2 incubator at 37°C. Whole-cell patch-clamp recordings were performed 48 hours after plating. Cells were dissociated on the experiment day and plated on poly-L-lysine–coated coverslips and allowed to recover for at least 1 hour in a 37°C/5% CO2 incubator before beginning experiments. Patch electrodes (2 to 3 MΩ) were filled with an intracellular solution containing 130 mM KCl, 2 mM MgCl2, 1 mM EGTA, 20 mM HEPES-free acid, and 2 mM Na2ATP (Roche Diagnostics, Risch-Rotkreuz, Switzerland), pH 7.3, titrated with KOH, and osmolarity 275 mOsmol/kg of water (adjusted with sucrose). The standard bath solution contained 135 mM NaCl, 5 mM KCl, 2 mM CaCl2, 1 mM MgCl2, 5 mM glucose, and 10 mM HEPES-free acid, pH 7.4, titrated with NaOH. Serial dilutions of compounds were first made in DMSO and then in bath solution so that the final DMSO concentration was 0.1% v/v across all test doses. Macroscopic currents were recorded under voltage-clamp conditions using an Axopatch 200B Amplifier (Molecular Devices, Sunnyvale, CA). Data were collected at 5 kHz and filtered at 1 kHz. […] IC50 values were determined by fitting the Hill equation to CRCs using variable-slope nonlinear regression analyses. […]

[1] = test system: Kir6.1- or Kir6.2-containing channels in complex with either SUR2A or SUR2B; experiment: Thallium flux, Kir6.1 or Kir6.2 co-expressed with SUR2A or SUR2B in transfected HEK-293 cells; format: cell-based; conditions: 3 µM, Fig. 4D
Excerpt: The pcDNA3.1-SUR2B plasmid was generously provided by Dr. Colin Nichols (Washington University). The pcDNA5/TO-Kir6.1 plasmid was synthesized by GenScript. Stably transfected tetracycline-regulated expression human embryonic kidney-293 (T-Rex-HEK293) cells expressing both plasmids were generated by cotransfecting cells with Lipofectamine LTX followed by antibiotic selection and clonal selection using the thallium flux assay described below. Monoclonal lines expressing robust pinacidil-activated thallium flux were selected for high KATP channel activity. T-Rex-HEK293 cells expressing Kir6.2/SUR1 were created as described previously ([Raphemot et al., 2014]). The cell culture media contained Dulbecco’s modified Eagle’s medium (Gibco, 11965-092) supplied with heat-inactivated FBS (bio-techne, Minneapolis, MN S11150H,10%), Blasticidine HCl (Gibco, A11139-03, 10 ug/mL), Penicillin-Streptomycin (Gibco, 15140-122, 2 mM), G418 Sulfate (CORNING, Corning, NY, 30-234-CR, 1 mg/mL), and Hygromycin B (Invitrogen, Carlsbad, CA, 10687-010, 250 ug/mL). […]
Quantitative thallium flux assays of Kir6.1/SUR2B activity were performed essentially as described previously for Kir6.2/SUR1 ([Raphemot et al., 2014]; [Kharade et al., 2019]). […] Dye-loaded cells were washed with assay buffer and transferred to a Panoptic Kinetic Imaging Plate Reader (Wavefront Bioscience, Franklin, TN). […]

[2] = Brain homogenate binding by equilibrium dialysis, mouse; format: in vitro ADME; conditions: read-out: Fu, brain (mouse)
Procedure: Determination of VU0542270 fu in […] from mouse and rat was conducted using the same methodology and procedure as described for plasma protein binding assay with the following modifications: 1) a final compound concentration of 1 μM was used, and 2) naïve rat brains were homogenized in DPBS (1:3 composition of brain:DPBS, w/w) using a Mini-Bead Beater machine to obtain brain homogenate.
The diluted fraction unbound (fu2) in brain was calculated as (analyte to IS MS peak area ratio from Trans-buffer side)/(analyte to IS MS peak area ratio from Cis-brain homogenate side). Undiluted fraction unbound for the brain was calculated using the following equation: [drawing 1]
Mean values for each species were calculated from three replicates.

IC50 (Kir6.1/SUR2B; 1 µM pinacidil-activated, normalized to maximal inhibition by 10 µM VU0542270, read-out: Kir6.1/SUR2B IC50, whole-cell current): ~279 nM and 278 nM | inhibition of KATP current (Kir6.1/SUR2B; 10 µM compound in continued presence of 1 µM pinacidil): complete inhibition | fraction unbound at 6 h, 1 µM [2]: 0.02
SMILES: Cc1nc(-c2cccs2)sc1CNC(=O)Nc1cccs1 [VU0542270]
inhibition of Kir6.1- or Kir6.2-containing channels with SUR2A or SUR2B [1]: inhibits
